Usually Emax stands for the size of the effect at its maximum, as opposed to the concentration needed.

In this experiment the target is T1, SMARCA2 (Homo sapiens, UniProt P51531).
T1 construct: endogenous in cells; host or cells: HT1080 (CRISPR HiBiT knock-in clone, generated in house)
Kind of experiment: SMARCA2 HiBiT degradation assay (cellular). In kind it is cell-based. To be noted: table head names A549; for DC50: HiBiT-tagged SMARCA2, luminescence read-out, read-out: HiBit A549 SMARCA2 IP (nM) 6 h; for Emax: A549, 6 h incubation.

Where [1] appears, read: Emax = amount of residual protein remaining in the cell following compound treatment.

T1 sequence (P51531 whole entry): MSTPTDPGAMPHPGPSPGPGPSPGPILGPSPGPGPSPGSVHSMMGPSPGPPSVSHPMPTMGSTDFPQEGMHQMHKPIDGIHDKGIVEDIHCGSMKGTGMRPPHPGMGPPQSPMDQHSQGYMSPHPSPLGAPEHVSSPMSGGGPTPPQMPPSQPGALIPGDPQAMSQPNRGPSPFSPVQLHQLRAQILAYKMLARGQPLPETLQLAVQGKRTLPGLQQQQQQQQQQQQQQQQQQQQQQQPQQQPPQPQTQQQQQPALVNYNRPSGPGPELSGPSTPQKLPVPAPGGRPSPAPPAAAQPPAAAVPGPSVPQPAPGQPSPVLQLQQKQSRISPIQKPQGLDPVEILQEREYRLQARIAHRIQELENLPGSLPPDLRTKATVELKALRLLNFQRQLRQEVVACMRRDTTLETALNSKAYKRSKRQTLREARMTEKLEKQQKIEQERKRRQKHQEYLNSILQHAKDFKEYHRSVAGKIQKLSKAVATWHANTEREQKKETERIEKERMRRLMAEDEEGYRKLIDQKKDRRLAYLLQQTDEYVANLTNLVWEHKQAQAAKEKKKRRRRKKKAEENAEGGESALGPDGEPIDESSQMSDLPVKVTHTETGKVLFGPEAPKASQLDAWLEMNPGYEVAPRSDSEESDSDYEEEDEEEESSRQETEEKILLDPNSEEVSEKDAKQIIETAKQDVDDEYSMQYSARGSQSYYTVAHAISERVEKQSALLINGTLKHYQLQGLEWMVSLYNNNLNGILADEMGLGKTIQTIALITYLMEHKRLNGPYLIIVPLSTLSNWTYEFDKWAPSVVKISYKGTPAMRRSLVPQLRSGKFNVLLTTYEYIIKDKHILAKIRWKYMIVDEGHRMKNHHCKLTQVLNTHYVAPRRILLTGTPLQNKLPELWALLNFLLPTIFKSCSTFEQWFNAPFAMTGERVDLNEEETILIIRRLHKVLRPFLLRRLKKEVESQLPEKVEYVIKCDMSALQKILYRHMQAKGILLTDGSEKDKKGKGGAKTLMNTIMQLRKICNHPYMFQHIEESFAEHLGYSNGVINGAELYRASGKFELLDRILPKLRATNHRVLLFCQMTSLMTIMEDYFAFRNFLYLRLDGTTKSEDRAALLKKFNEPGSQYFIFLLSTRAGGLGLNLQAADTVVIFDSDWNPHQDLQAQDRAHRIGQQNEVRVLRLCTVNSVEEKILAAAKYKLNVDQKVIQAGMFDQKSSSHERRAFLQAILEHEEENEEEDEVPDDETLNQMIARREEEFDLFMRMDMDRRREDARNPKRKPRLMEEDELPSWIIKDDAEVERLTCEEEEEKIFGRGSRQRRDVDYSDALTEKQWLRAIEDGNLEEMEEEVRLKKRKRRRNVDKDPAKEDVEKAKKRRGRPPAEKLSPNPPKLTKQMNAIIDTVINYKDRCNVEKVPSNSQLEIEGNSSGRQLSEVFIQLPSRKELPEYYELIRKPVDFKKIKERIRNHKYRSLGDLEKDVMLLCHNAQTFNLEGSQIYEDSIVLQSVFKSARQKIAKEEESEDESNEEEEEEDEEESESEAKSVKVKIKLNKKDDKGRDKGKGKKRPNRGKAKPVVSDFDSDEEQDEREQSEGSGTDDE

As to `Nc1nnc(-c2ccccc2O)cc1N1CC2CCC(C1)N2c1cccc(CC2CCN(C(=O)CCNc3cccc4c3C(=O)N(C3CCC(=O)NC3=O)C4=O)CC2)c1` (racemic) [Example 58, rac-4-[[3-[4-[[3-[3-[3-amino-6-(2-hydroxyphenyl)pyridazin-4-yl]-3,8-diazabicyclo[3.2.1]octan-8-yl]phenyl]methyl]-1-piperidyl]-3-oxo-propyl]amino]-2-(2,6-dioxo-3-piperidyl)isoindoline-1,3-dione], the DC50 (6 h incubation) was determined as 43 nM. The compound also had an Emax under setting [1] of 59%.

For `Nc1nnc(-c2ccccc2O)cc1N1CC2CCC(C1)N2c1cccc(OCCN2CCN(C(=O)CNC(=O)C3CCN(c4ccc5c(c4)C(=O)N(C4CCC(=O)NC4=O)C5=O)CC3)CC2)c1` (racemic) [Example 19, rac-N-[2-[4-[2-[3-[3-[3-amino-6-(2-hydroxyphenyl)pyridazin-4-yl]-3,8-diazabicyclo[3.2.1]octan-8-yl]phenoxy]ethyl]piperazin-1-yl]-2-oxo-ethyl]-1-[2-(2,6-dioxo-3-piperidyl)-1,3-dioxo-isoindolin-5-yl]piperidine-4-carboxamide], the “HiBit A549 SMARCA2 Emax (%) 6 h” value (6 h incubation, Emax = amount of residual protein remaining in the cell following compound treatment) is on record as 34%. Besides, the DC50 (6 h incubation) was found to be 64 nM.

As for `Nc1nnc(-c2ccccc2O)cc1N1CC2CCC(C1)N2c1cccc(OC2CCN(C(=O)CN3CCC(c4ccc(NC5CCC(=O)NC5=O)cc4)CC3)CC2)c1` (racemic) [Example 114, rac-3-[4-[1-[2-[4-[3-[3-[3-amino-6-(2-hydroxyphenyl)pyridazin-4-yl]-3,8-diazabicyclo[3.2.1]octan-8-yl]phenoxy]-1-piperidyl]-2-oxo-ethyl]-4-piperidyl]anilino]piperidine-2,6-dione], the DC50 (6 h incubation) came out at 82 nM. Further, under setting [1], the Emax came to 40%.

On to `Nc1nnc(-c2ccccc2O)cc1N1CC2CCC(C1)N2c1cccc(OCCN2CCN(C(=O)N3CC4(C3)CN(c3ccc5c(c3)C(=O)N(C3CCC(=O)NC3=O)C5=O)C4)CC2)c1` (racemic) [Example 69, rac-5-[2-[4-[2-[3-[3-[3-amino-6-(2-hydroxyphenyl)pyridazin-4-yl]-3,8-diazabicyclo[3.2.1]octan-8-yl]phenoxy]ethyl]piperazine-1-carbonyl]-2,6-diazaspiro[3.3]heptan-6-yl]-2-(2,6-dioxo-3-piperidyl)isoindoline-1,3-dione], for which the DC50 (6 h incubation) is 16 nM. Under setting [1], this compound had an Emax of 48%.

As to `Nc1nnc(-c2ccccc2O)cc1N1CC2CCC(C1)N2c1cccc(CN2CCC(C(=O)NC3CCN(c4ccc5c(c4)C(=O)N(C4CCC(=O)NC4=O)C5=O)CC3)CC2)c1` (racemic) [Example 106, rac-1-[[3-[3-[3-amino-6-(2-hydroxyphenyl)pyridazin-4-yl]-3,8-diazabicyclo[3.2.1]octan-8-yl]phenyl]methyl]-N-[1-[2-(2,6-dioxo-3-piperidyl)-1,3-dioxo-isoindolin-5-yl]-4-piperidyl]piperidine-4-carboxamide], the DC50 (6 h incubation) amounted to 23 nM. The compound also gave an Emax under setting [1] of 26%.

Turning to `Nc1nnc(-c2ccccc2O)cc1OC1CCCN(c2ccc(OCCN3CCN(C(=O)CCCCCCCCCCCCC(=O)N4CCN(c5ccc(NC6CCC(=O)NC6=O)cc5)CC4)CC3)cc2)C1` (stereo not drawn) [Example 25, 3-[4-[4-[14-[4-[2-[4-[3-[3-amino-6-(2-hydroxyphenyl)pyridazin-4-yl]oxy-1-piperidyl]phenoxy]ethyl]piperazin-1-yl]-14-oxo-tetradecanoyl]piperazin-1-yl]anilino]piperidine-2,6-dione], the DC50 (6 h incubation) is 614 nM. Moreover, under setting [1], the Emax was found to be 59%.

Values taken from patent US20230024096A1, “BIFUNCTIONAL COMPOUNDS FOR THE TREATMENT OF CANCER” (Hoffmann-La Roche Inc., priority 2019, published 2023).
